Tested on: Root-knot Nematode (Meloidogyne incognita)
Assay: Control of root-knot nematode on tomato in the greenhouse
Type: in vivo, Meloidogyne incognita (on tomato, Lycopersicon esculentum)
Text: Evaluation of a liquid formulation consisting of a solution of 2-diethoxyphosphinylimino-1,3-dithietane in polyethylene glycol for the control of root-knot nematode (Meloidogyne incognita) on tomato in the greenhouse.
1. 2-Diethoxyphosphinylimino-1,3-dithietane, 91% real. (Active ingredient; a.i.)
2. Liquid formulation consisting of 20.9%, by weight, of a.i. and 79.1%, by weight, of polyethylene glycol of an average molecular weight of 400.
Tomato (Lycopersicon esculentum; Cv. Bonny Best).
Root-knot Nematode (Meloidogyne incognita) inoculum. [formula] 2-Diethoxyphosphinylimino-1,3-dithietane at 0.75 mg, 1.5 mg and 3.0 mg/liter of soil. Polyethylene glycol blank at 14.4 mg/liter of soil.
All compounds are made up as acetone solutions. One liter of moist potting soil is placed in a suitable stainless steel beaker. One ml of candidate solution is distributed, drop by drop, over the surface of the soil. The beaker is then capped and placed on an off-center rotary mixer and mixed for 2 minutes (about 60 revolutions). After mixing, the soil is divided between two 0.5 liter paper cups by filling the cups half full of soil, then distributing 25 ml root-knot nematode inoculum on the soil and filling the remainder of the container with treated soil. Seedling tomato plants are transplanted into the cups of soil the same day, watered and removed to the greenhouse. After about 4 weeks, the tomato plants are carefully removed from the containers, the soil washed from the roots, and the roots are then examined for nematode galling.
The roots are indexed for galling by the following system: […]

CCOP(=O)(N=C1SCS1)OCC [Formulation 1, 2-Diethoxyphosphinylimino-1,3-dithietane]
Root-knot index, Average of 3 Replicates (0.75 mg/l active ingredient): 7.0 | Root-knot index (0.75 mg/l active ingredient, replicate 1): 8 (61-70% of roots galled) | Root-knot index (0.75 mg/l active ingredient, replicate 2): 8 (61-70% of roots galled) | Root-knot index (0.75 mg/l active ingredient, replicate 3): 5 (31-40% of roots galled) | protection of the tomato roots from the root-knot nematode (0.75 mg/l of soil): poor | Root-knot index, Average of 3 Replicates (1.5 mg/l active ingredient): 4.7 | Root-knot index (1.5 mg/l active ingredient, replicate 1): 6 (41-50% of roots galled) | Root-knot index (1.5 mg/l active ingredient, replicate 2): 6 (41-50% of roots galled) | Root-knot index (1.5 mg/l active ingredient, replicate 3): 2 (6-10% of roots galled) | protection of the tomato roots from the root-knot nematode (1.5 mg/l of soil): poor | Root-knot index (3.0 mg/l active ingredient, replicate 1): 0 | Root-knot index (3.0 mg/l active ingredient, replicate 2): 0 | Root-knot index (3.0 mg/l active ingredient, replicate 3): T (less than 1% of roots with galls.) | protection of the tomato roots from the root-knot nematode (3.0 mg/l of soil): excellent
